Test results taken from US20250230138A1, “COMPOUNDS HAVING A T-STRUCTURE FORMED BY AT LEAST FOUR CYCLES FOR USE IN THE TREATMENT OF CANCER AND OTHER INDICATIONS” (TheRas, Inc., priority 2022, published 2025).
Read-outs that look alike come from different tables or passages of the source.

Experiments:
pAKT in BT474 cells = assay: Cell-based pAKT HTRF assay in BT474 cells; conditions: BT474 cells, 4 hr incubation, read-out: pAKT inhibition IC50 in BT474 cells
Procedure, shortened: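 Treatment lasts 4 hr in DMEM/10% FBS at 0.25% DMSO over nine 3-fold dilutions from 3 μM. The lysate is then probed by HTRF.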

[1] = target: Cys242 in human PIK3CA (157-299) (Homo sapiens (Human), UniProt P42336); assay: Covalent modification assay using MALDI-TOF MS; assay type: biochemical; conditions: 4 h reaction time point
Chain of Cys242 in human PIK3CA (157-299) (P42336 157-299): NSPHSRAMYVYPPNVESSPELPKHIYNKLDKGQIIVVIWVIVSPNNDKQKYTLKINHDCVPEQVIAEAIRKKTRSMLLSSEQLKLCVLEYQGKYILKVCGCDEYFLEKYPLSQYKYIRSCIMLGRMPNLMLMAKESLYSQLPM
Procedure, shortened: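 PIK3CA (157-299), 3.33 or 1 μM in 20 mM HEPES, 150 mM NaCl, 2 mM MgCl2, pH 7.3, was incubated with compound at room temperature in the dark for 15 min, 30 min, 2 h or 4 h. Linear MALDI-TOF read-out; % modification = adduct peak height over summed heights of all protein species.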

[2] = 3.33 μM protein target, 1:7.5 protein to compound ratio (compounds 1-852)
[3] = 1 μM protein target, 1:5 protein to compound ratio (compounds 853-1279)
[4] = Homo sapiens, BT-474, Compounds 10-999

Row | SMILES | IC50 (pAKT in BT474 cells; Compounds 10-999) [nM] | % of modification [1, 2] | further results
1 | C=CC(=O)N1Cc2cc(-c3nc(-c4cn(C)cn4)c4ccsc4c3-c3c(F)cc(F)cc3OC(C)C)nn2CC1C (centres unmarked) [Compound 496] | < 100 | A (percent of modification of PIK3CA protein ≥75%) | –
2 | C=CC(=O)N1Cc2cc(-c3nc(-c4ccc5c(c4)CCN(C)C5)c4ccsc4c3-c3c(F)cc(F)cc3OCCO)nn2[C@@H](C)C1 [Compound 483] | < 100 | A (percent of modification of PIK3CA protein ≥75%) | –
3 | C=CC(=O)N1Cc2cc(-c3nc(-c4ccc5c(c4)CN(C)C5=O)c4ccsc4c3-c3c(F)cc(F)cc3OC)nn2C(C)C1 (centres unmarked) [Compound 946] | < 100 | – | % of modification [1, 3]: A (percent of modification of PIK3CA protein ≥75%)
4 | C=CC(=O)N1CCc2ncc(-c3nc(-c4cnn(C)c4)c4ccsc4c3-c3c(F)cc(F)cc3OC)cc2C1 [Compound 405] | < 100 | A (percent of modification of PIK3CA protein ≥75%) | –
5 | C=CC(=O)N1CCn2nc(-c3nc(-c4cnn(C)c4)ccc3-c3ccc(F)cc3OCCOC)cc2C1 [Compound 322, 1-[2-[3-[4-fluoro-2-(2-methoxyethoxy)phenyl]-6-(1-methylpyrazol-4-yl)-2-pyridyl]-6,7-dihydro-4H-pyrazolo[1,5-a]pyrazin-5-yl]prop-2-en-1-one] | – | C (25%≤percent of modification <50%) | IC50 (pAKT in BT474 cells; [4]): > 3000 nM
6 | C=CC(=O)N1CCn2nc(-c3nc(-c4cnn(C)c4)c4ccsc4c3-c3ccc(F)cc3OC(C)C)nc2C1 [Compound 225] | < 100 | A (percent of modification of PIK3CA protein ≥75%) | –
7 | C=CC(=O)N1CCn2nc(-c3nc(-c4ccc(C(=O)N5CCN(C)CC5)cc4)c4ccsc4c3-c3c(F)cc(F)cc3OCCOC)cc2C1C (centres unmarked) [Compound 1096] | – | – | IC50 (pAKT in BT474 cells; Compounds 1000-1279): < 100 nM; % of modification [1, 3]: A (percent of modification of PIK3CA protein ≥75%)
8 | C=CC(=O)N1CCn2nc(-c3nc(-c4cnn(C)c4)c4ccsc4c3-c3ccc(F)cc3OCC3CCNC(=O)C3)cc2C1 (centres unmarked) [Compound 212] | < 100 | A (percent of modification of PIK3CA protein ≥75%) | –
9 | C=CC(=O)N1Cc2cc(-c3nc(-c4ccc5c(c4)CNC5=O)c4ccsc4c3-c3c(F)cc(F)cc3OCCOC)nn2C[C@H]1C [Compound 691] | < 100 | A (percent of modification of PIK3CA protein ≥75%) | –
10 | C=CC(=O)N1CCn2nc(-c3nc(-c4ccc(N5CCN(C)CC5)nc4)c4ccsc4c3-c3c(F)cc(F)cc3OCCOC)cc2C1C (centres unmarked) [Compound 1048] | – | – | IC50 (pAKT in BT474 cells; Compounds 1000-1279): < 100 nM; % of modification [1, 3]: A (percent of modification of PIK3CA protein ≥75%)
11 | C=CC(=O)N1CCc2nc(-c3nc(-c4ccc5c(c4)CNC5=O)c4ccsc4c3-c3c(F)cc(F)cc3OC(C)C)sc2C1 [Compound 311, 5-[7-(2,4-difluoro-6-isopropoxy-phenyl)-6-(5-prop-2-enoyl-6,7-dihydro-4H-thiazolo[5,4-c]pyridin-2-yl)thieno[3,2-c]pyridin-4-yl]isoindolin-1-one] | – | A (percent of modification of PIK3CA protein ≥75%) | IC50 (pAKT in BT474 cells; [4]): < 100 nM
12 | C=CC(=O)N1CC[C@H](n2cc(-c3nc(-c4ccc5c(c4)CCNC5)c4ccsc4c3-c3ccc(F)cc3OCC3CCNC(=O)C3)ccc2=O)C1 (some centres unmarked) [Compound 214] | 100 to 1000 | A (percent of modification of PIK3CA protein ≥75%) | –
13 | C=CC(=O)N1CCn2nc(-c3nc(N4CC5(CC(C(=O)NC)C5)C4)c4ccsc4c3-c3c(F)cc(F)cc3OCCOC)cc2[C@H]1C [Compound 1012, 2-((S)-6-((R)-5-acryloyl-4-methyl-4,5,6,7-tetrahydropyrazolo[1,5-a]pyrazin-2-yl)-7-(2,4-difluoro-6-(2-methoxyethoxy)phenyl)thieno[3,2-c]pyridin-4-yl)-N-methyl-2-azaspiro[3.3]heptane-6-carboxamide] | – | – | IC50 (pAKT in BT474 cells; Homo sapiens, BT-474, Compounds 1000-1279): < 100 nM; % of modification [1, 3]: A (percent of modification of PIK3CA protein ≥75%)
14 | C=CC(=O)N1Cc2cc(-c3nc(-c4cnnc(C)c4)c4ccsc4c3-c3c(F)cc(F)cc3OCCO)nn2C(C)C1 (centres unmarked) [Compound 788] | < 100 | A (percent of modification of PIK3CA protein ≥75%) | –
15 | C=CC(=O)N1CCn2nc(-c3nc(-c4ccnc(N(C)C)c4)c4ccsc4c3-c3c(F)cc(F)cc3OCCO)cc2C1C (centres unmarked) [Compound 960] | < 100 | – | % of modification [1, 3]: A (percent of modification of PIK3CA protein ≥75%)
16 | C=CC(=O)N1CCn2nc(-c3nc(-c4ccc5c(c4)CN(C)C(=O)C5)c4ccsc4c3-c3c(F)cc(F)cc3OCCOC)cc2C1C (centres unmarked) [Compound 983] | < 100 | – | % of modification [1, 3]: A (percent of modification of PIK3CA protein ≥75%)
17 | C=CC(=O)N1CCn2nc(-c3nc(-c4ccc5ncc(=O)n(C)c5c4)c4ccsc4c3-c3c(F)cc(F)cc3OCCO)cc2[C@H]1C [Compound 979] | < 100 | – | % of modification [1, 3]: A (percent of modification of PIK3CA protein ≥75%)

Row | SMILES | IC50 (pAKT in BT474 cells; Compounds 10-999) [nM] | % of modification [1, 2] | further results
18 | C=CC(=O)N1CCn2nc(-c3nc(-c4ccc5c(c4)CCNC5=O)c4ccsc4c3-c3ccc(F)cc3OC3CC3)cc2C1 [Compound 302] | < 100 | A (percent of modification of PIK3CA protein ≥75%) | –
19 | C=CC(=O)N1CCc2nc(-c3nc(-c4ccc5c(c4)CCNC5)c4c(F)csc4c3-c3c(F)cc(F)cc3OCCOC)sc2C1 [Compound 434, 1-[2-[7-[2,4-difluoro-6-(2-methoxyethoxy)phenyl]-3-fluoro-4-(1,2,3,4-tetrahydroisoquinolin-6-yl)thieno[3,2-c]pyridin-6-yl]-6,7-dihydro-4H-thiazolo[5,4-c]pyridin-5-yl]prop-2-en-1-one] | – | A (percent of modification of PIK3CA protein ≥75%) | IC50 (pAKT in BT474 cells; [4]): 100 to 1000 nM
20 | C=CC(=O)N1Cc2cc(-c3nc(-c4cnc5c(c4)CNC(=O)C5)c4ccsc4c3-c3c(F)cc(F)cc3OC(C)C)nn2CC1C (centres unmarked) [Compound 495] | < 100 | A (percent of modification of PIK3CA protein ≥75%) | –
21 | C=CC(=O)N1Cc2cc(-c3nc(-c4ccc5cn(C)nc5c4)c4ccsc4c3-c3c(F)cc(F)cc3OCCOC)nn2[C@@H](C)C1 [Compound 742] | < 100 | A (percent of modification of PIK3CA protein ≥75%) | –
22 | C=C(F)C(=O)N1CCn2nc(-c3nc(-c4ccc5c(c4)CCN(C)C5)c4ccsc4c3-c3c(F)cc(F)cc3OC(C)C)cc2C1 (single isomer, unassigned) [Compound 486] | < 100 | A (percent of modification of PIK3CA protein ≥75%) | –
23 | C=CC(=O)N1Cc2cc(-c3nc(-c4cnn(C)c4)c4ccsc4c3-c3c(F)cc(F)cc3OCCO)nn2CC1C (centres unmarked) [Compound 534] | < 100 | A (percent of modification of PIK3CA protein ≥75%) | –
24 | C=CC(=O)N1CCn2nc(-c3nc(-c4ccc5c(c4)ncn5C)c4ccsc4c3-c3c(F)cc(F)cc3OC[C@@H](C)O)cc2[C@H]1C [Compound 761] | < 100 | A (percent of modification of PIK3CA protein ≥75%) | –
25 | C=CC(=O)N1CCn2nc(-c3nc(-c4cnnc(C)c4)c4ccsc4c3-c3c(F)cc(F)cc3OC[C@@H](C)O)cc2[C@H]1C [Compound 751] | < 100 | A (percent of modification of PIK3CA protein ≥75%) | –
26 | C=CC(=O)N1Cc2cc(-c3nc(-c4ccc(=O)n(CCN(C)C)c4)c4ccsc4c3-c3c(F)cc(F)cc3OCCOC)nn2C[C@H]1C [Compound 880] | < 100 | – | % of modification [1, 3]: A (percent of modification of PIK3CA protein ≥75%)
27 | C=CC(=O)N1CCn2nc(-c3nc(-c4cnn(C)c4)c4ccsc4c3-c3c(F)cc(F)cc3OC[C@@H](C)O)cc2[C@H]1C [Compound 753] | < 100 | A (percent of modification of PIK3CA protein ≥75%) | –
28 | C=CC(=O)N1CCc2nc(-c3nc(-c4ccc5c(c4)CCNC5)c4ccsc4c3-c3c(F)cc(F)cc3OCCOC)sc2C1 [Compound 366] | 100 to 1000 | A (percent of modification of PIK3CA protein ≥75%) | –
29 | C=CC(=O)N1CCn2nc(-c3nc(-c4ccc5c(c4)CCC5N(C)C)c4ccsc4c3-c3c(F)cc(F)cc3OCCOC)cc2C1C (centres unmarked) [Compound 1182] | – | – | IC50 (pAKT in BT474 cells; Compounds 1000-1279): < 100 nM; % of modification [1, 3]: A (percent of modification of PIK3CA protein ≥75%)
30 | C=CC(=O)N1CCn2nc(-c3nc(-c4cnc5c(c4)CN(C)CC5)c4ccsc4c3-c3ccc(F)cc3OC(C)C)cc2C1 [Compound 283] | < 100 | A (percent of modification of PIK3CA protein ≥75%) | –
31 | C=CC(=O)N1CCc2ncc(-c3nc(-c4cnc(N)nc4)c4ccsc4c3-c3c(F)cc(F)cc3OC(C)C)cc2C1 [Compound 372] | < 100 | A (percent of modification of PIK3CA protein ≥75%) | –
32 | C=CC(=O)N1CC[C@H](n2cc(-c3nc(-c4ccc5c(c4)CCN(C)C5)c4ccsc4c3-c3ccc(F)cc3OCCOC)cn2)C1 [Compound 67] | < 100 | A (percent of modification of PIK3CA protein ≥75%) | –
33 | C=CC(=O)N1CCc2ccc(-c3nc(-c4cn(C)cn4)c4ccsc4c3-c3c(F)cc(F)cc3OCCO)cc2C1 (single isomer, unassigned) [Compound 1001] | – | – | IC50 (pAKT in BT474 cells; Compounds 1000-1279): 100 to 1000 nM; % of modification [1, 3]: D (percent of modification <25%)
34 | C=CC(=O)N1CC(n2cc(-c3nc(-c4ccc5c(c4)CCNC5)c4c(c3-c3ccc(F)cc3OCCOC)CCC4)ccc2=O)C1 [Compound 154] | < 100 | A (percent of modification of PIK3CA protein ≥75%) | –
